This note sets out measurements from US11801242B2, “Compositions and methods for adjuvant cancer therapeutics” (DUKE UNIVERSITY, priority 2018, dated 2023).

One experiment relates to A375 xenograft tumors. Put plainly: Murine xenograft tumor model. It counts as in vivo, mouse. As to conditions: co-administration RE01 1.6 mg/kg with cisplatin 1 mg/kg, intratumoral, twice per week for 5 weeks. As to the method: NCRNU-F (nude) female, 6-8-week-old mice were divided into 4 groups (with 6 animals per group) for saline, cisplatin alone, RE01 alone, and cisplatin and RE01 combination treatments. Three million A375 cells mixed in matrigel (Corning) were injected into each flank of the 6 mice to generate 10-12 xenograft tumors per treatment group. After the tumors grew to a total tumor volume of at least 100 mm^3, the drugs (saline, cisplatin alone, RE01 alone, and cisplatin and RE01 combination) with a total volume of 100 μL per injection were injected directly into the tumor. Treatments were carried out twice per week for 5 weeks. On the dosing day, tumors were first measured with calipers, weights were recorded, and then the drugs would be injected directly into the tumors. The mice were sedated with isofluorane prior to measurements and treatments.
The drugs were formulated in 10% EtOH, 40% PEG400, and 50% saline for all the four types of treatments. Cisplatin was injected at a dose of 1 mg/kg per animal and RE01 was administered at a 1.6 mg/kg per animal. In the combination treatment of cisplatin and RE01, the same doses of 1 mg/kg and 1.6 mg/kg respectively per animal were administered. Tumor volumes were calculated by the formula (W^2×L)/2 as described previously.

The target in experiment [1] is T1, REV1 CTD-REV7/3 interaction (Mus musculus, UniProt Q920Q2).
T1 construct: fused on or other part: FLAG tag at the N-terminus (after the TEV site; His10-GB1 solubility tag cleaved off); di-glycine linker between mouse POL kappa RIR K564-N577 and the REV1 CTD; Q9QUG2 (DNA polymerase kappa)
The experiment in a line: AlphaScreen assay, inhibition of the REV1 CTD-REV7/3 interaction. Type of experiment: binding. Conditions: fitting of the inhibition curve, inhibitor 0-25 μM, n=3. As to the method:
The FLAG-tagged mouse POL κ-REV1 CTD was diluted in PBS containing 1 mM Tris(2-carboxyethyl)phosphine (TCEP) and 0.005% Tween-20 at a final protein concentration of 1 nM and transferred to individual wells of a 96-well, half-area, white opaque plate (PerkinElmer). Serially diluted RE01 stock solutions in 50% DMSO were added to the wells to yield final inhibitor concentrations of 0-25 μM in 2% DMSO. After 30 min incubation, anti-FLAG Donor Beads (PerkinElmer) were added to a final concentration of 20 ng/μL to individual wells and incubated for an hour. His8-tagged mouse REV7/3 was subsequently added to the reaction mixture to a final concentration of 10 nM and incubated for 30 min. Anti-His Acceptor Beads (PerkinElmer) were added to a final concentration of 20 ng/μL and incubated for an hour.
Error bars represent standard error (n=3).
In general terms: In Alpha technology, singlet oxygen from a donor bead excites a nearby acceptor bead.

The subject of another experiment is Rev1^−/− MEF cells. The experiment in a line: Clonogenic survival assay. Type of experiment: cell-based, mouse. The procedure:
300 cells were plated in triplicate in 6-well plates for 24 hours. Cisplatin (cis-diammineplatinum(II) dichloride, Sigma-Aldrich) was added to relevant wells for 24 hours. All plates were incubated at 37° C. for 24 hours. Media were changed the next day and in fresh media RE01 (at 1.5 μM concentration) was added to untreated or cisplatin-treated cells for another 24 hours. Media were changed at the end of these combination treatments, and cells were allowed to recover for 7 days. To stain the resulting colonies, media were aspirated and the fixative (50% methanol and 10% glacial acetic acid) was added for 10 minutes, followed by the addition of 0.02% Coomassie brilliant blue R-250 stain (ThermoFisher) in methanol: acetic acid: water in a ratio of 46.5:7:46.5 (v/v/v). Colonies that stained blue and contained at least 40 cells were counted. Relative cell survival or colony formation was calculated by dividing colony counts from treated samples by the DMSO or untreated controls.
REV1 was knocked down by transiently transfecting SMARTpool: ON-TARGETplus REV1 siRNA by nucleofection. The siRNA was mixed with the nucleofection buffer Mouse/Rat Hepatocyte Nucleofector™ Kit (Lonza) and electroporated using the Nucleofector™ 2b device. Full-length mouse Rev1 on the pC3 plasmid (Clontech) was nucleofected using the same buffers and device into Rev1^−/− cells to complement the REV1 function.

A further experiment has as its system HT1080 cells. The experiment in a line: Gapped plasmid TLS assay, cisplatin 1,2-GG lesion. It counts as cell-based, human. Conditions: pre-treatment with RE01 1.5, 3.0 and 15.0 μM for 24 hours. The source says: The double stranded plasmid pUC19 with ampicillin resistance was modified to include the oligonucleotide containing cisplatin 1,2-GG lesion on one strand and a gapped region across it. Briefly, the 16mer cisplatin-containing oligonucleotide was flanked by two 21mer regular DNA strands (5′-[…]-3′ (SEQ ID NO: 2) on the 5′ end and 5′-[…]-3′ (SEQ ID NO: 3) on the 3′ end) and elongated to a 58mer lesion-containing single strand DNA. After linearizing the plasmid by restriction endonucleases BstAPI and BspQI (New England Biolabs), the 58mer oligonucleotide was mixed with two scaffolds (5′-TGCATGCGCGCTACGACG-3′ (SEQ ID NO: 4) and 5′-[…]-3′ (SEQ ID NO: 5)) and ligated with the linear pUC19 plasmid to build up a circular plasmid containing a site-specific cisplatin 1,2-GG lesion and a 16-nucleotide gap on the opposite strand.
A competitor gapped plasmid that was three bases longer (started from a 19mer oligonucleotide 5′-CTCTCTAGGCTCACTTCTA-3′ (SEQ ID NO: 6)) than the lesion-containing plasmid was used as the internal control. The cells were pre-treated with either DMSO or RE01 (1.5, 3.0 and 15.0 μM) for 24 hours. […] The gap-filling efficiency by TLS was calculated by dividing the output ratio obtained from HPLC-MS with the input ratio (4:1) and the results were normalized to 100%.

T1 sequence (Q920Q2 whole entry, looked up, the tested form may be a part): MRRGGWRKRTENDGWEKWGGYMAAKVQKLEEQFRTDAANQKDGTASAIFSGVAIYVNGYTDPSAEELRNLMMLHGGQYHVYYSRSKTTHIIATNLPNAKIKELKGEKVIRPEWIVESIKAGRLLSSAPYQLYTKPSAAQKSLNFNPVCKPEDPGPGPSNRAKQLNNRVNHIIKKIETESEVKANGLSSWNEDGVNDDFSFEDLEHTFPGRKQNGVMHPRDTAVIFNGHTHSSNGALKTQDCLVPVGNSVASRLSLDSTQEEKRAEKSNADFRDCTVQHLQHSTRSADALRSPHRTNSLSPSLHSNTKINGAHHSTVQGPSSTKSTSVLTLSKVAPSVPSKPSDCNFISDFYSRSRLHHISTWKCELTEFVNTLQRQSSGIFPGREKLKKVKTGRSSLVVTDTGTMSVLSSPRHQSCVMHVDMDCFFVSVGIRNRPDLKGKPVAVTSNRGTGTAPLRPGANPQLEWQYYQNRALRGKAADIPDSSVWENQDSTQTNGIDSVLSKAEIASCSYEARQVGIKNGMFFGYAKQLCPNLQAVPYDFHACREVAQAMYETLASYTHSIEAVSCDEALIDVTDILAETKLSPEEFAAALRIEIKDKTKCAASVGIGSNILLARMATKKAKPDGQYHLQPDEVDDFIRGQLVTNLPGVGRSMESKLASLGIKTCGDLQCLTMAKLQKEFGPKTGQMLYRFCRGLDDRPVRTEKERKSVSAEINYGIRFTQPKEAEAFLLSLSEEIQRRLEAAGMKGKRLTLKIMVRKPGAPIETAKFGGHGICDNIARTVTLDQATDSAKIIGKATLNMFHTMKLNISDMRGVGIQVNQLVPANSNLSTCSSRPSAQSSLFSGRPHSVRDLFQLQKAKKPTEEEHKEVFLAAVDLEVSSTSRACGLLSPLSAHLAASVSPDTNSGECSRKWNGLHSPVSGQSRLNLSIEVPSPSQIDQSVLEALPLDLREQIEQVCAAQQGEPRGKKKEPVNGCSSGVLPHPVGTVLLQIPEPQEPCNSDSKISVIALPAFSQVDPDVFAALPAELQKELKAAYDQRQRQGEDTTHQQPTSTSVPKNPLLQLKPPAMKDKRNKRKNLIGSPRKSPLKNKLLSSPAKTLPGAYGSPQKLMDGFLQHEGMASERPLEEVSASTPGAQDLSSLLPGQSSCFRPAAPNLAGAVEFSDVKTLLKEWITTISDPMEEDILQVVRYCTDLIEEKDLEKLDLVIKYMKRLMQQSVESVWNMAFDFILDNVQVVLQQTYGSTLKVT

In the case of `CC(C)CC(=O)c1c(Nc2ccc(Cl)cc2Cl)[nH]c2c(Cl)ccc([N+](=O)[O-])c2c1=O` [RE01, 8-chloro-2-((2,4-dichlorophenyl)amino)-3-(3-methylbutanoyl)-5-nitroquinolin-4(1H)-one], the “growth of xenograft human melanomas” value with A375 xenograft tumors is listed as “strikingly suppresses”. In experiment [1], the IC50 was 780 nM. In the experiment on Rev1^−/− MEF cells (RE01 1.5 μM + cisplatin 0.5 μM vs cisplatin alone), the colony forming ability result was “but not in Rev1^−/− MEF cells”. In addition, in the experiment with Rev1^−/− MEF cells (cells complemented with plasmid encoding REV1, RE01 1.5 μM, cisplatin 1 μM), the “RE01 mediated sensitization to cisplatin” value is on record as “fully restored”. Further, in the experiment with HT1080 cells, the “bypass efficiency of 1,2-GG cisplatin DNA adduct” value is given as “suppresses”.

As a reminder, the IC50 is the concentration that inhibits the measured activity by half. Higher therefore signals weaker potency in that assay.
